Measured values published in PMC5570892, “Indole-based perenosins as highly potent HCl transporters and potential anti-cancer agents” (Scientific Reports, 2017).
“And” between values parts separate entries of the source, which are not always exact repeats. Equal entries are not always repeated.

Tests used:
[1] = 1H NMR titration chloride binding studies; conditions: for Overall association constant β21 for the 2:1 host:guest complex: calculated by multiplying K 11 and K 21; for Association constant of Cl^− in the presence of HPF6 (1 equiv.), 1:1 (K a) / Association constant of Cl^− in the presence of HPF6 (1 equiv.), 2:1, K 11 / Association constant of Cl^− in the presence of HPF6 (1 equiv.), 2:1, K 21: protonated perenosin, TBA-Cl, DMSO-d6/0.5% H2O, 298 K; for Association constant of Cl^− in the presence of HPF6 (1 equiv.), 1:1 (K a): 1:1 binding model; for Association constant of Cl^− in the presence of HPF6 (1 equiv.), 2:1, K 11 / Association constant of Cl^− in the presence of HPF6 (1 equiv.), 2:1, K 21: 2:1 binding model; for partial protonation of the imine nitrogen: one mole equivalent of HPF6, DMSO-d6/0.5% H2O
Protocol: Proton NMR titrations were performed in DMSO-d 6/0.5% H2O, to assess the ability of compounds 1d and 2–8 to bind chloride, added as the tetrabutylammonium (TBA) salt, in solution. […] However, in the presence of one equivalent of HPF6, strong binding to chloride was observed through downfield shifts of the pyrrole-NH, indole-NH and the protonated imine-NH^+. All three resonances were fitted globally to the 1:1 or 2:1 (sandwich) binding models using Bindfit[48].
S8. 1H NMR Titration Binding Studies
S8.1. Equipment and Sample Preparation
1H NMR titrations were performed on a Bruker Avance AVII400 FT -NMR spectrometer with either SEF 1H/D-19F or DUL D/1H-13C, 5 mm z-gradient probes, operating at a frequency of 400 MHz for 1H NMR with the probe temperature maintained at 298 K unless otherwise stated as determined using a variable temperature unit ([…]). For all NMR titrations, a constant host concentration w as maintained (~ 5.0 mM) by using the host solution to dissolve the guest to make the guest stock solution. Over the course of the titration Hamiltonian Microlitre syringes were used to add aliquots of the guest stock solution to the NMR sample of the host solution.
The anions were added as the tetrabutylammonium (TBA) salts after being dried under high vacuum (< 1.0 mmHg) for 24 h. Stock solutions of the host ( ~ 5.0 mM) were prepared in a DMSO -d6/0.5%H2O mixture. In some titrations, protonation of the host species was achieved through the addition of 1 eq. hexafluorophosphoric acid (HPF6) to the host stock solution. The host stock solutions, with or without addition of HPF6, ( 500 μL) were transferred to an air -tight screw-cap NMR sample tube (5 mm ID) and the same host stock solution was used to prepare the standard guest titrant solution containing approximately 100 mM of the TBA-anion salts. T his ensured a constant concentration of the host (~ 5.0 mM) for the duration of the titration experiment.
S8.2. Titration Procedure
Over the course of the titration small aliquots (2 -100 μL) of the standard guest solution were added to the host solution ( ~ 500 μL) in the NMR tube. For ea ch titration 15 -20 data points were collected and at the end of the titration approximately 10 equivalents of the guest anion salt were present.
Upon each addition of the standard guest solution the samples were thoroughly shaken in the NMR tube and then allowed to equilibrate for up to 2 minutes inside the NMR probe before the spectra were taken. Throughout each titration experiment all parameters of the NMR s pectrometer […]
S8.3. Titration Data Fitting
For each 1H NMR titration, all the proton resonances were monitored for changes in chemical shift.
In the case of protonated host species at least one proton resonance was followed and for the neutral host species two or more proton resonances were followed, which allowed several data sets to use in determination of the association constant (Ka). Global fitting takes into account all data sets at the same time and this improves the quality of the nonlinear curve fitting. The supramolecular.org web applet10 was used to fit the collected titration data and allows the use of different binding models to fit the data in the best way. For compounds 1d and 2-8 firstly the 1:1 […]
cooperative or additive, was used. The quality of fit is determined by the covariance of the fit (covfit), which is calculated by dividing the (co)variance of the residual (experimental data − calculated data) with the covariance of the experimental data. A covariance of fit factor (F covfit) can be obtained by dividing the covfir from the 1:1 binding model by the covfit from the 2:1 binding model. Due to the higher number of parameters from the 2:1 binding model an improvement in the covfit (i.e. F covfit)

[2] = NMDG-Cl assay by HPTS (H^+/Cl^− symport); format: biochemical; conditions: for EC50 NMDG-Cl (by HPTS): H^+/Cl^− symport, no gramicidin or oleic acid; for EC50 (Gra) NMDG-Cl (by HPTS): in the presence of gramicidin 0.1 mol%; for EC50 (OA) NMDG-Cl (by HPTS): in the presence of oleic acid 2 mol%
Protocol: The selectivity for Cl^−>H^+/OH^− transport of the perenosins was quantified using a modified NMDG-Cl assay. Unilamellar vesicles loaded with HPTS (1 mM) and N-methyl-D-glucamine chloride (NMDG-Cl) (100 mM), buffered to pH 7 with HEPES (10 mM) were prepared. Free base NMDG (0.5 M) was added increasing the extravesicular solution to pH 8, and the dissipation of this gradient following the addition of receptors was monitored. Dissipation of pH gradient indicates H^+/Cl^− symport (or the functionally equivalent OH^−/Cl^− exchange) mediated by perenosins. Gramicidin D (Gra) is a proton channel added to facilitate H^+ transport. The addition of oleic acid (OA), a naturally occurring fatty acid found in cell membranes, allowed the investigation of the enhancement in H^+/Cl^− symport, in the presence of oleic acid. Anion transporters can assist the fatty acid flip-flop mechanism by taking on the role of a flippase for fatty acid anions via binding to the anionic carboxylate head group, masking the charge and allowing rapid passage of the head group through the lipid bilayer. This in turn accelerates the natural proton transport mediated by fatty acids in biological membranes.
For all cases EC50 values were obtained from dose-response experiments and subsequent Hill analysis (see Supplementary Information). Chloride selectivity was then quantified to give a selectivity factor (SG), shown in Table 2, using the ratio of the EC50 values. From the previous cationophore coupled assays, it was evident that the capability of perenosins to facilitate electrogenic chloride transport is negligible, therefore an absence in selectivity for Cl^−>H^+/OH^− was expected. […] FOA values for the overall H^+/Cl^− cotransport rate were calculated for compounds 1d and 2–6 in the presence of OA and are also shown in Table 2. […] In the presence of fatty acids, an alternative pathway that involves the diffusion of the fatty acid complex and free fatty acids could replace this step. […] This may be likely due to the competitive binding of the receptors to the carboxylate head group so inhibiting chloride binding and transport.
S10.8. General Procedure for the HPTS Assay
Unilamellar vesicles were prepared using previously reported literature procedures16. A lipid film of POPC (1-palmitoyl-2-oleoyl-sn-glycero-3-phosphocholine) was prepared from a chloroform solution under reduced pressure and then dried under vacuum for 4 or more hours. The lipid film was rehydrated by vortexing with an internal solution containing HPTS (1 mM). The lipid suspension was then subjected to 9 freeze-thaw cycles and left to rest at room temperature for 30 minutes. After this, the suspension was extruded 25 times through a 200 nm polycarbonate membrane resulting in unilamellar vesicles of a mean diameter of 200 nm. The un-encapsulated HPTS was removed by size exclusion chromatography using a sephadex G-25 column and an external solution eluent that does not contain HPTS. The lipid solution obtained after dialysis was diluted to a standard volume (usually 10 mL) with the external buffered solution to obtain a lipid stock of known concentration.
In each experiment identical internal and external solutions were used with various salts (NMDG -Cl or sodium gluconate) buffered with HEPES (10 mM) to pH 7.0, and are detailed below.
The lipid stock was diluted with the external buffer solution to a standard volume (2.5 mL), to afford a solution with a lipid concentration of 0.1 mM. The compounds were added as a DMSO solution (10 μL) and when an assisting ionophore (gramicidin) or oleic acid (a naturally occurring monosaturated fatty acid) was used this was also added as a DMSO solution (5 μL, 0.1 mol% or 2 mol% respectively (with respect to lipid)). To start the experiment, after the addition of the compounds, a base pulse (25 μL, of NMDG or TBAOH (0.5 M)) was spiked in to generate a pH gradient across the membrane. […]

## CCCc1cc2cc(C)cc(/N=C/c3[nH]c(C)cc3C)c2[nH]1 [Perenosin 4]
[1]
  Overall association constant β21 for the 2:1 host:guest complex: 468000 M⁻¹
  Association constant of Cl^− in the presence of HPF6 (1 equiv.), 1:1 (K a): 3440 M⁻¹
  Association constant of Cl^− in the presence of HPF6 (1 equiv.), 2:1, K 11: 1530 M⁻¹
  Association constant of Cl^− in the presence of HPF6 (1 equiv.), 2:1, K 21: 306 M⁻¹
[2]
  EC50 NMDG-Cl (by HPTS): 0.00069 mol%
  EC50 (Gra) NMDG-Cl (by HPTS): 0.00038 mol%
  EC50 (OA) NMDG-Cl (by HPTS): 0.00008 mol%

## CCCCCc1cc2cc(C)cc(/N=C/c3[nH]c(C)c(CCCCC)c3C)c2[nH]1 [Perenosin 6]
[1]
  Overall association constant β21 for the 2:1 host:guest complex: 172000 M⁻¹
  Association constant of Cl^− in the presence of HPF6 (1 equiv.), 1:1 (K a): 78300 M⁻¹
  Association constant of Cl^− in the presence of HPF6 (1 equiv.), 2:1, K 11: 1090 M⁻¹
  Association constant of Cl^− in the presence of HPF6 (1 equiv.), 2:1, K 21: 158 M⁻¹
[2]
  EC50 NMDG-Cl (by HPTS): 0.00249 mol%
  EC50 (Gra) NMDG-Cl (by HPTS): 0.00211 mol%
  EC50 (OA) NMDG-Cl (by HPTS): 0.00208 mol%

## CCCCCc1cc2cc(C(F)(F)F)cc(/N=C/c3[nH]c(C)cc3C)c2[nH]1 [Perenosin 3]
[1]
  Overall association constant β21 for the 2:1 host:guest complex: 393000 M⁻¹
  Association constant of Cl^− in the presence of HPF6 (1 equiv.), 1:1 (K a): 3440 M⁻¹
  Association constant of Cl^− in the presence of HPF6 (1 equiv.), 2:1, K 11: 190 M⁻¹
  Association constant of Cl^− in the presence of HPF6 (1 equiv.), 2:1, K 21: 2070 M⁻¹
[2]
  EC50 NMDG-Cl (by HPTS): 0.01151 mol%
  EC50 (Gra) NMDG-Cl (by HPTS): 0.00879 mol%
  EC50 (OA) NMDG-Cl (by HPTS): 0.04912 mol%

## CCCCCc1cc2cc(C)cc(/N=C/c3[nH]c4ccccc4c3C)c2[nH]1 [Perenosin 8]
[1]
  Overall association constant β21 for the 2:1 host:guest complex: 35500 M⁻¹
  partial protonation of the imine nitrogen: ~10%
  Association constant of Cl^− in the presence of HPF6 (1 equiv.), 1:1 (K a): 142 M⁻¹
  Association constant of Cl^− in the presence of HPF6 (1 equiv.), 2:1, K 11: 184 M⁻¹
  Association constant of Cl^− in the presence of HPF6 (1 equiv.), 2:1, K 21: 193 M⁻¹

## CCCCCc1cc2cc(C)cc(/N=C/c3[nH]c(C)cc3C)c2[nH]1 [Perenosin 2]
[1]
  Overall association constant β21 for the 2:1 host:guest complex: 1.18e+06 M⁻¹
  Association constant of Cl^− in the presence of HPF6 (1 equiv.), 1:1 (K a): 2450 M⁻¹
  Association constant of Cl^− in the presence of HPF6 (1 equiv.), 2:1, K 11: 2500 M⁻¹
  Association constant of Cl^− in the presence of HPF6 (1 equiv.), 2:1, K 21: 473 M⁻¹
[2]
  EC50 NMDG-Cl (by HPTS): 0.00062 mol%
  EC50 (Gra) NMDG-Cl (by HPTS): 0.00037 mol%
  EC50 (OA) NMDG-Cl (by HPTS): 0.00085 mol%

## CCCCCc1c(C)[nH]c(/C=N/c2cc(C)cc3cc[nH]c23)c1C [Perenosin 5]
[1]
  Overall association constant β21 for the 2:1 host:guest complex: 4630 M⁻¹
  Association constant of Cl^− in the presence of HPF6 (1 equiv.), 1:1 (K a): 2610 M⁻¹
  Association constant of Cl^− in the presence of HPF6 (1 equiv.), 2:1, K 11: 331 M⁻¹
  Association constant of Cl^− in the presence of HPF6 (1 equiv.), 2:1, K 21: 14 M⁻¹
[2]
  EC50 NMDG-Cl (by HPTS): 0.00231 mol%
  EC50 (Gra) NMDG-Cl (by HPTS): 0.00095 mol%
  EC50 (OA) NMDG-Cl (by HPTS): 0.00273 mol%

## CCCCCc1cc(/N=C/c2[nH]c3ccccc3c2C)c2[nH]ccc2c1 [Perenosin 7]
[1]
  Overall association constant β21 for the 2:1 host:guest complex: 36500 M⁻¹
  partial protonation of the imine nitrogen: approximately 20%
  Association constant of Cl^− in the presence of HPF6 (1 equiv.), 1:1 (K a): 157 M⁻¹
  Association constant of Cl^− in the presence of HPF6 (1 equiv.), 2:1, K 11: 72 M⁻¹
  Association constant of Cl^− in the presence of HPF6 (1 equiv.), 2:1, K 21: 507 M⁻¹

## CCCCCc1cc(/N=C/c2[nH]c(C)cc2C)c2[nH]ccc2c1 [Perenosin 1d]
[1]
  Overall association constant β21 for the 2:1 host:guest complex: 333000 M⁻¹
  Association constant of Cl^− in the presence of HPF6 (1 equiv.), 1:1 (K a): 605 M⁻¹
  Association constant of Cl^− in the presence of HPF6 (1 equiv.), 2:1, K 11: 1750 M⁻¹
  Association constant of Cl^− in the presence of HPF6 (1 equiv.), 2:1, K 21: 190 M⁻¹
[2]
  EC50 NMDG-Cl (by HPTS): 0.0107 mol% and 0.01073 mol%
  EC50 (Gra) NMDG-Cl (by HPTS): 0.00656 mol%
  EC50 (OA) NMDG-Cl (by HPTS): 0.00925 mol%
